Results reported in PMC5053523, “In Vitro Antibacterial Activity of Rhodanine Derivatives against Pathogenic Clinical Isolates” (PLoS ONE, 2016).
Values after ≈ are worked out from the molar mass of the structure shown. Read-outs that look alike come from different tables or passages of the source.

Legend:
[1] = system: P. aeruginosa; test: Broth microdilution MIC, P. aeruginosa; type: cell-based; conditions: Pseudomonas aeruginosa
[2] = system: Acinetobacter baumannii; test: MIC with/without PMBN, Acinetobacter baumannii; type: cell-based
Procedure: (§1) The MIC of the rhodanines and control antibiotics, in the presence of a sub-inhibitory concentration of colistin or polymixin B nonapeptide (PMBN), against Gram-negative bacteria was evaluated as described before. The antibacterial activity of the rhodanines was further investigated against E. coli SM1411Δ acrAB, a strain that is deficient in the multidrug-resistant AcrAB efflux pump, as described before.

[3] = system: methicillin-resistant Staphylococcus aureus (MRSA); test: Broth microdilution MIC/MBC, MRSA; type: cell-based; conditions: for MIC50 / MIC90: 11 MRSA strains
[4] = system: vancomycin resistant enterococci (VRE); test: Broth microdilution MIC50/MIC90, VRE panel; type: cell-based; conditions: Enterococcus, 10 VRE strains; for MIC90: VRE, read-out: MIC 90; for MIC50: read-out: MIC 50
[5] = system: Pseudomonas aeruginosa; test: MIC with/without sub-MIC colistin, Pseudomonas aeruginosa; type: cell-based
Procedure: as §1

[6] = system: Pseudomonas aeruginosa; test: MIC with/without PMBN, Pseudomonas aeruginosa; type: cell-based
Procedure: as §1

[7] = system: MRSA USA300; test: MIC against MRSA USA300 with and without 4% human serum albumin; type: cell-based, Staphylococcus aureus; conditions: Staphylococcus aureus, read-out: MIC against MRSA USA300
How it was run: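 Broth microdilution MIC per CLSI against MRSA USA300, run in tryptic soy broth alone and with 4% human serum albumin. MIC is the lowest concentration inhibiting growth.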

[8] = system: vancomycin resistant enterococci (VRE) E. faecalis; test: Broth microdilution MIC/MBC, VRE E. faecalis; type: cell-based; conditions: for MIC: read-out: MIC
[9] = system: K. pneumoniae; test: Broth microdilution MIC, K. pneumoniae; type: cell-based
[10] = system: Salmonella Typhimurium; test: MIC with/without PMBN, Salmonella Typhimurium; type: cell-based
Procedure: as §1

[11] = system: Bacillus anthracis; test: microbe, parasite or virus in culture; type: cell-based
[12] = system: Klebsiella pneumoniae; test: MIC with/without PMBN, Klebsiella pneumoniae; type: cell-based
Procedure: as §1

[13] = system: Salmonella Typhimurium; test: MIC with/without sub-MIC colistin, Salmonella Typhimurium; type: cell-based
Procedure: as §1

[14] = system: Acinetobacter baumannii; test: Broth microdilution MIC, Acinetobacter baumannii; type: cell-based
[15] = Acinetobacter baumannii ATCC BAA747, PMBN (+) 4 μg/mL, read-out: MIC
[16] = Acinetobacter baumannii ATCC BAA19606, PMBN (+) 4 μg/mL, read-out: MIC
[17] = Acinetobacter baumannii, ATCCBAA747
[18] = Acinetobacter baumannii, ATCCBAA19606
[19] = Pseudomonas aeruginosa ATCC 921, colistin (+) […], read-out: MIC
[20] = Pseudomonas aeruginosa, ATCC921
[21] = Pseudomonas aeruginosa ATCC 9721, PMBN (+) 4 μg/mL, read-out: MIC
[22] = Pseudomonas aeruginosa, ATCC9721
[23] = E. faecalis NR31972 Strain SF 28073
[24] = Salmonella Typhimurium ATCC 700720, PMBN (+) 4 μg/mL, read-out: MIC
[25] = Salmonella enterica, ATCC 700720 / TYPHIMURIUM
[26] = Klebsiella pneumoniae ATCC BAA 1706, PMBN (+) 4 μg/mL
[27] = Klebsiella pneumoniae ATCC BAA 2146, PMBN (+) 4 μg/mL
[28] = Salmonella Typhimurium ATCC 700720, colistin (+) […], read-out: MIC

Compound: O=C(O)[C@H](Cc1ccccc1)N1C(=O)/C(=C/c2cccc(Oc3ccc(Cl)c(Cl)c3)c2)SC1=S [Rh 1]
- MIC ([1]; ATCC9721): > 128 µM
- MIC ([1]; ATCC15442): > 128 µM
- MIC [2, 15]: >64 µM
- MIC [2, 16]: >64 µM
- MIC [2, 17]: > 128 µM
- MIC [2, 18]: > 128 µM
- MIC50 [3]: 8 µM (≈ 4.24 µg/mL)
- MIC90 [3]: 8 µM (≈ 4.24 µg/mL)
- MBC ([3]; MRSA NRS 1): 8 µM (≈ 4.24 µg/mL)
- MIC ([3]; MRSA NRS 1): 8 µM (≈ 4.24 µg/mL)
- MBC ([3]; MRSA NRS 19): 8 µM (≈ 4.24 µg/mL)
- MIC ([3]; MRSA NRS 19): 8 µM (≈ 4.24 µg/mL)
- MBC ([3]; MRSA NRS 37): 8 µM (≈ 4.24 µg/mL)
- MIC ([3]; MRSA NRS 37): 8 µM (≈ 4.24 µg/mL)
- MBC ([3]; MRSA NRS 107): 8 µM (≈ 4.24 µg/mL)
- MIC ([3]; MRSA NRS 107): 8 µM (≈ 4.24 µg/mL)
- MBC ([3]; MRSA NRS 119): 8 µM (≈ 4.24 µg/mL)
- MIC ([3]; MRSA NRS 119): 8 µM (≈ 4.24 µg/mL)
- MBC ([3]; MRSA NRS 382): 8 µM (≈ 4.24 µg/mL)
- MIC ([3]; MRSA NRS 382): 8 µM (≈ 4.24 µg/mL)
- MBC ([3]; MRSA NRS 383): 8 µM (≈ 4.24 µg/mL)
- MIC ([3]; MRSA NRS 383): 8 µM (≈ 4.24 µg/mL)
- MBC ([3]; MRSA NRS 384): 32 µM (≈ 17 µg/mL)
- MIC ([3]; MRSA NRS 384): 8 µM (≈ 4.24 µg/mL)
- MBC ([3]; MRSA NRS 385): 8 µM (≈ 4.24 µg/mL)
- MIC ([3]; MRSA NRS 385): 8 µM (≈ 4.24 µg/mL)
- MBC ([3]; MRSA NRS 386): 16 µM (≈ 8.49 µg/mL)
- MIC ([3]; MRSA NRS 386): 8 µM (≈ 4.24 µg/mL)
- MBC ([3]; MRSA NRS 387): 8 µM (≈ 4.24 µg/mL)
- MIC ([3]; MRSA NRS 387): 8 µM (≈ 4.24 µg/mL)
- MIC90 [4]: 8 µM (≈ 4.24 µg/mL)
- MIC50 [4]: 8 µM (≈ 4.24 µg/mL)
- MIC [5, 19]: >64 µM
- MIC [5, 20]: > 128 µM
- MIC [6, 21]: >64 µM
- MIC [6, 22]: > 128 µM
- MIC ([7]; 24 h, Media TSB + 4% HSA): > 64 µM
- MIC ([7]; Media TSB): 8 µM (≈ 4.24 µg/mL)
- MBC ([8]; E. faecalis ERV103 HM-934): 8 µM (≈ 4.24 µg/mL)
- MIC ([8]; E. faecalis ERV103 HM-934): 8 µM (≈ 4.24 µg/mL)
- MBC [8, 23]: 32 µM (≈ 17 µg/mL)
- MIC [8, 23]: 8 µM (≈ 4.24 µg/mL)
- MBC ([8]; E. faecalis R712 HM-335): 8 µM (≈ 4.24 µg/mL)
- MIC ([8]; E. faecalis R712 HM-335): 4 µM (≈ 2.12 µg/mL)
- MBC ([8]; E. faecalis S613 HM-334): 8 µM (≈ 4.24 µg/mL)
- MIC ([8]; E. faecalis S613 HM-334): 8 µM (≈ 4.24 µg/mL)
- MBC ([8]; E. faecalis TX0104 HM-201): 8 µM (≈ 4.24 µg/mL)
- MIC ([8]; E. faecalis TX0104 HM-201): 8 µM (≈ 4.24 µg/mL)
- MIC ([9]; K. pneumoniae NR-15417): >128 µM
- MIC ([9]; Klebsiella pneumoniae): > 128 µM
- MIC [10, 24]: >128 µM
- MIC [10, 25]: > 128 µM
- MBC ([11]; Bacillus anthracis AMES35): 2 µM (≈ 1.06 µg/mL)
- MIC ([11]; Bacillus anthracis AMES35): 2 µM (≈ 1.06 µg/mL)
- MBC ([11]; Bacillus anthracis UM23): 2 µM (≈ 1.06 µg/mL)
- MIC ([11]; Bacillus anthracis UM23): 2 µM (≈ 1.06 µg/mL)
- MBC ([11]; Bacillus anthracis Weybridge): 2 µM (≈ 1.06 µg/mL)
- MIC ([11]; Bacillus anthracis Weybridge): 2 µM (≈ 1.06 µg/mL)
- MIC [12, 26]: >64 µM
- MIC [12, 27]: >64 µM
- MIC ([12]; Klebsiella pneumoniae, BAA1706): > 128 µM
- MIC ([12]; Klebsiella pneumoniae, BAA2146): > 128 µM
- MIC [13, 28]: >64 µM
- MIC [13, 25]: > 128 µM
- MIC ([14]; ATCC13345): > 128 µM
- MIC ([14]; ATCC17786): > 128 µM

Compound: O=C(O)[C@H](Cc1ccccc1)N1C(=O)/C(=C/c2cccc(Cc3ccc(Cl)c(Cl)c3)c2)SC1=S [Rh 3]
- MIC ([1]; ATCC9721): > 128 µM
- MIC ([1]; ATCC15442): > 128 µM
- MIC [2, 15]: >64 µM
- MIC [2, 16]: >64 µM
- MIC [2, 17]: > 128 µM
- MIC [2, 18]: > 128 µM
- MIC50 [3]: 8 µM (≈ 4.23 µg/mL)
- MIC90 [3]: 16 µM (≈ 8.46 µg/mL)
- MBC ([3]; MRSA NRS 1): 8 µM (≈ 4.23 µg/mL)
- MIC ([3]; MRSA NRS 1): 8 µM (≈ 4.23 µg/mL)
- MBC ([3]; MRSA NRS 19): 8 µM (≈ 4.23 µg/mL)
- MIC ([3]; MRSA NRS 19): 8 µM (≈ 4.23 µg/mL)
- MBC ([3]; MRSA NRS 37): 16 µM (≈ 8.46 µg/mL)
- MIC ([3]; MRSA NRS 37): 8 µM (≈ 4.23 µg/mL)
- MBC ([3]; MRSA NRS 107): 32 µM (≈ 16.9 µg/mL)
- MIC ([3]; MRSA NRS 107): 8 µM (≈ 4.23 µg/mL)
- MBC ([3]; MRSA NRS 119): 8 µM (≈ 4.23 µg/mL)
- MIC ([3]; MRSA NRS 119): 8 µM (≈ 4.23 µg/mL)
- MBC ([3]; MRSA NRS 382): 32 µM (≈ 16.9 µg/mL)
- MIC ([3]; MRSA NRS 382): 16 µM (≈ 8.46 µg/mL)
- MBC ([3]; MRSA NRS 383): 8 µM (≈ 4.23 µg/mL)
- MIC ([3]; MRSA NRS 383): 8 µM (≈ 4.23 µg/mL)
- MBC ([3]; MRSA NRS 384): 16 µM (≈ 8.46 µg/mL)
- MIC ([3]; MRSA NRS 384): 16 µM (≈ 8.46 µg/mL)
- MBC ([3]; MRSA NRS 385): 16 µM (≈ 8.46 µg/mL)
- MIC ([3]; MRSA NRS 385): 16 µM (≈ 8.46 µg/mL)
- MBC ([3]; MRSA NRS 386): 32 µM (≈ 16.9 µg/mL)
- MIC ([3]; MRSA NRS 386): 8 µM (≈ 4.23 µg/mL)
- MBC ([3]; MRSA NRS 387): 32 µM (≈ 16.9 µg/mL)
- MIC ([3]; MRSA NRS 387): 16 µM (≈ 8.46 µg/mL)
- MIC90 [4]: 8 µM (≈ 4.23 µg/mL)
- MIC50 [4]: 4 µM (≈ 2.11 µg/mL)
- MIC [5, 19]: >64 µM
- MIC [5, 20]: > 128 µM
- MIC [6, 21]: >64 µM
- MIC [6, 22]: > 128 µM
- MIC ([7]; 24 h, Media TSB + 4% HSA): > 64 µM
- MIC ([7]; Media TSB): 8 µM (≈ 4.23 µg/mL)
- MBC ([8]; E. faecalis ERV103 HM-934): 8 µM (≈ 4.23 µg/mL)
- MIC ([8]; E. faecalis ERV103 HM-934): 4 µM (≈ 2.11 µg/mL)
- MBC [8, 23]: 64 µM (≈ 33.8 µg/mL)
- MIC [8, 23]: 4 µM (≈ 2.11 µg/mL)
- MBC ([8]; E. faecalis R712 HM-335): 4 µM (≈ 2.11 µg/mL)
- MIC ([8]; E. faecalis R712 HM-335): 4 µM (≈ 2.11 µg/mL)
- MBC ([8]; E. faecalis S613 HM-334): 8 µM (≈ 4.23 µg/mL)
- MIC ([8]; E. faecalis S613 HM-334): 4 µM (≈ 2.11 µg/mL)
- MBC ([8]; E. faecalis TX0104 HM-201): 8 µM (≈ 4.23 µg/mL)
- MIC ([8]; E. faecalis TX0104 HM-201): 4 µM (≈ 2.11 µg/mL)
- MIC ([9]; K. pneumoniae NR-15417): >128 µM
- MIC ([9]; Klebsiella pneumoniae): > 128 µM
- MIC [10, 24]: >128 µM
- MIC [10, 25]: > 128 µM
- MBC ([11]; Bacillus anthracis AMES35): 2 µM (≈ 1.06 µg/mL)
- MIC ([11]; Bacillus anthracis AMES35): 2 µM (≈ 1.06 µg/mL)
- MBC ([11]; Bacillus anthracis UM23): 2 µM (≈ 1.06 µg/mL)
- MIC ([11]; Bacillus anthracis UM23): 2 µM (≈ 1.06 µg/mL)
- MBC ([11]; Bacillus anthracis Weybridge): 2 µM (≈ 1.06 µg/mL)
- MIC ([11]; Bacillus anthracis Weybridge): 2 µM (≈ 1.06 µg/mL)
- MIC [12, 26]: >64 µM
- MIC [12, 27]: >64 µM
- MIC ([12]; Klebsiella pneumoniae, BAA1706): > 128 µM
- MIC ([12]; Klebsiella pneumoniae, BAA2146): > 128 µM
- MIC [13, 28]: >64 µM
- MIC [13, 25]: > 128 µM
- MIC ([14]; ATCC13345): > 128 µM
- MIC ([14]; ATCC17786): > 128 µM
